In patent publication US20040162353A1 (priority 2000, published 2004):
Where “and” joins values, the source holds several entries; their conditions need not be identical. Equal values may be shown once. Entries after “also recorded” stand apart in the source; their conditions may differ.

Tests used:
[1] = tested on: PSMA messenger RNA in LNCaP prostate cancer cell line; details: LNCaP cells after exposure to DHT; cited from earlier work
prostate cancer [2] = details: oral fenretinide; 22 men at high risk; trial closed early; cited from earlier work
[3] = tested on: tumors harboring Ki-ras mutations; details: AOM-treated rats; reduced from 90%; cited from earlier work
prostate cancer [4] = details: one year of Proscar; 1 of 25 men with no treatment; p=0.025; cited from earlier work
[5] = Side effects and coagulation parameters in men taking oral DFMO; format: in vivo, human
Excerpt: (§1) This protocol was approved by the investigational review board of the University of California Irvine and the Long Beach Veterans Administration Medical Center. Men between the ages of 50 and 85, who were undergoing a trans-rectal prostate needle biopsy for either an elevated PSA or abnormal rectal exam, signed a written consent to undergo four additional core needle biopsies of the peripheral zone at the time of their, routine extant biopsy. The additional four biopsies were immediately frozen liquid nitrogen and stored in the minus 70-degree freezer. The […] biopsy was sent to Pathology for routine analysis. […] Patients were monitored for side effects using questionnaires and interview techniques. Coagulation parameters were carefully assessed prior to surgery. In the operating room just prior to the surgical procedure four trans-rectal core biopsies of the peripheral zone were taken and frozen. The pre and post DFMO specimens were sent together to Arizona on dry ice for histology and polyamine analysis. Radical prostatectomy specimens were staged according to the TMN updated 1997 staging system (American Joint Committee on Cancer 1997).

prostatic ODC = biological target: T1, prostatic ODC (Rattus norvegicus, UniProt P09057); details: cited from earlier work
T1 construct: from tissue; host or cells: rat prostate (animals treated in vivo with DFMO)
T1 sequence (P09057 1-461): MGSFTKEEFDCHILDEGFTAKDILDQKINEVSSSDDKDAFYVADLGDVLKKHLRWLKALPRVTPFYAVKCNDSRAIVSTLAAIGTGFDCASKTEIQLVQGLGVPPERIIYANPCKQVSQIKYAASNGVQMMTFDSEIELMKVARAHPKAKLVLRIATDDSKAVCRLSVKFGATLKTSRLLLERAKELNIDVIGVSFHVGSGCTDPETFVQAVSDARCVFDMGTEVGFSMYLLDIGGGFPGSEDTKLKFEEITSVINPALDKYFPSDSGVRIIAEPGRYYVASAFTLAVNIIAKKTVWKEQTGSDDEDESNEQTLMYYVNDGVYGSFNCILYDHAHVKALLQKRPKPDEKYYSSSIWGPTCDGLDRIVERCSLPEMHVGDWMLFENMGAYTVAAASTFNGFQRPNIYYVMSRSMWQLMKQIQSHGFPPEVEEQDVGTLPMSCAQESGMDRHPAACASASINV

[6] = tested on: human prostate polyamine levels and ODC activity; details: cited from earlier work
mouse epidermis = details: topically applied five percent solution of DFMO; cited from earlier work
prostate tumor = details: rat, in vivo, ip; cited from earlier work
[7] = tested on: polyamines in rat prostate; details: two weeks of 100 mg/kg DFMO, cited from earlier work
cutaneous spermine = details: ten percent DFMO cream; ten patients suffering from psoriasis; cited from earlier work
PSA = assay: Serum PSA in men taking oral DFMO; format: in vivo, human
Excerpt: as §1

[8] = tested on: polyamines (putrescine, spermidine, spermine) in the human prostate; assay: Prostate core biopsy polyamine content before and after 28 days of oral DFMO; format: in vivo; details: oral DFMO 0.5 gm/m^2 for 28 days
Excerpt: This protocol was approved by the investigational review board of the University of California Irvine and the Long Beach Veterans Administration Medical Center. Men between the ages of 50 and 85, who were undergoing a trans-rectal prostate needle biopsy for either an elevated PSA or abnormal rectal exam, signed a written consent to undergo four additional core needle biopsies of the peripheral zone at the time of their, routine extant biopsy. The additional four biopsies were immediately frozen liquid nitrogen and stored in the minus 70-degree freezer. The […] biopsy was sent to Pathology for routine analysis. […] Patients were monitored for side effects using questionnaires and interview techniques. Coagulation parameters were carefully assessed prior to surgery. In the operating room just prior to the surgical procedure four trans-rectal core biopsies of the peripheral zone were taken and frozen. The pre and post DFMO specimens were sent together to Arizona on dry ice for histology and polyamine analysis. Radical prostatectomy specimens were staged according to the TMN updated 1997 staging system (American Joint Committee on Cancer 1997). To determine prostate core polyamine contents, cores were first thawed, washed in phosphate buffered saline (PBS) and weighted. Samples were then minced in 0.2 N perchloric acid and sonicated to disrupt cellular material. Samples were centrifuged at 2,000×g for 5 minutes to separate acid soluble and insoluble fractions. The acid soluble fraction was evaluated for polyamine contents, using reverse-phase, ion-pared high performance liquid chromatography (PHLC) methods, as described elsewhere ([…] et al. 1994; […] et al 1994; […] et al. 1998). Briefly, polyamines are separated on a C18 B Ondapak column, derivatized with […] separation and detected by absorption of the derivatized material at 750 nm. Mean, median, and range for polyamine levels are reported in nmol/mg protein. The limit of detection of our method is 0.01 nmol/mg. Histological Changes were assessed by bright field microscopy methods. Pre- and post DFMO polyamine values were compared using the Wilcoxon matched-pairs signed rank test. Thus, for each patient we were able to take into account both the magnitude and the direction of changes in polyamines due to DFMO.

ODC = biological target: T2, ODC (Homo sapiens, UniProt P11926); details: concentrations from 0.6 μM to 80 μM; three separate studies; cited from earlier work
T2 sequence (P11926 1-461): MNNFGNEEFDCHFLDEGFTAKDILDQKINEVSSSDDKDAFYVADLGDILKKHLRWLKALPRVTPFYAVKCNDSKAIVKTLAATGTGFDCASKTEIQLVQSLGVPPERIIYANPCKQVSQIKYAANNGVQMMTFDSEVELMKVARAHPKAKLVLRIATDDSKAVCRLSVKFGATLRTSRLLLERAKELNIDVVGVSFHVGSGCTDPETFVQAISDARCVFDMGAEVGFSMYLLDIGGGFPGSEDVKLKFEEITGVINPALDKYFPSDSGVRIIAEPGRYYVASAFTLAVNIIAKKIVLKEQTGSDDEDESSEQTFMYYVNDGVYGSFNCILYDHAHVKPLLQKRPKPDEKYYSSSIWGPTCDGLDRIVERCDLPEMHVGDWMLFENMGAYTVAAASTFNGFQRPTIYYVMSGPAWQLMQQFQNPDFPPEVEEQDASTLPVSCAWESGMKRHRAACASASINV

[9] = tested on: matrilysin expression in LNCaP human prostate cancer derived cells; assay: IL-1β-induced matrilysin expression in LNCaP cells; format: cell-based
Excerpt: As indicated earlier, DFMO acts late in the tumor promotion stage of epithelial carcinogenesis.

[10] = oral DFMO 0.5 gm/m^2, about 28 days
[11] = two weeks of DFMO 0.5 gm/m^2 orally

## C[C@]12CCC(=O)C[C@@H]1CC[C@@H]1[C@@H]2CC[C@]2(C)[C@@H](O)CC[C@@H]12 [5-α-dihydroxytestosterone]
[1]
  down-regulation of PSMA mRNA: 8-10 fold

## CC1=C(/C=C/C(C)=C/C=C/C(C)=C/C(=O)Nc2ccc(O)cc2)C(C)(C)CCC1 [fenretinide]
Prostate cancer [2]
  men with negative prestudy biopsies who developed malignancy while on study: 8 men

## CN1C(C(=O)Nc2ccccn2)=C(O)c2ccccc2S1(=O)=O [piroxicam]
[3]
  number of tumors harboring Ki-ras mutations: 25%

## CC(C)(C)NC(=O)[C@H]1CC[C@H]2[C@@H]3CC[C@H]4NC(=O)C=C[C@]4(C)[C@H]3CC[C@]12C [Proscar, finasteride]
Prostate cancer [4]
  men with cancer diagnosed at one year follow up biopsy: 8 of 27

## NCCC[C@](N)(C(=O)O)C(F)F [DFMO, alpha-difluoromethylornithine]
[5]; [10]
  bleeding time prior to surgery: not altered
  change in platelet counts or protime: no clinically significant change
[5]; oral DFMO 0.5 gm/m^2, average 28.2 days, grade 0 to 1
  men reporting side effects: four men
Prostatic ODC; by 24 hrs, 100 mg/kg every 12 hrs i.p.
  prostatic ODC reduction compared to control: 50%
Prostatic ODC; throughout the two week study
  sustained suppression of prostatic ODC activity, remaining activity: 50 % of baseline activity
[6]; fourteen men completed two weeks of DFMO
  toxicity: no toxicity
[6]; two weeks of DFMO 0.5 gm/m^2
  ODC activity, DFMO vs placebo: no differences
[6]; two weeks of DFMO 0.5 gm/m^2, placebo 1.95, p=0.03
  mean putrescine level in prostate cores: 1.43
[6]; [11]
  spermidine level, DFMO vs placebo: no differences; also recorded: failed to detect any reduction
  spermine level, DFMO vs placebo: no differences; also recorded: failed to detect any reduction
Mouse epidermis
  spermine and spermidine levels: not affected
[3]
  number of tumors harboring Ki-ras mutations: 36%
Prostate tumor
  systemic toxicity: no systemic toxicity
[7]; control 202±37
  putrescine in rat prostate after DFMO: 4 ± 4 nmol/g
[7]; control 2968±293, no significant reduction
  spermine in rat prostate after DFMO: 2741±346
[7]; control 7334±193
  spermidine in rat prostate after DFMO: 1188±289
Cutaneous spermine
  improvement in psoriatic lesions: marginal improvement
  reduction of cutaneous spermine levels: sixty-six percent
PSA; five patients, increase in patients 3,8,9
  PSA change on DFMO, patients with malignant pathology: increased in 3 of 5
PSA; four patients (1,4,5,7), pre-biopsy or pre-DFMO PSA vs PSA on DFMO
  PSA change on DFMO, patients with final benign pathology: decreased in each patient
PSA; individual patients 1-9, drawn while on DFMO
  Pre-op PSA: 3.7 ng/ml and 7.5 ng/ml and 2.5 ng/ml and 1.4 ng/ml and 5 ng/ml and 2.3 ng/ml and 6.8 ng/ml and 35.5 ng/ml and 8.2* ng/ml
[8]; n=9
  range of spermine level after DFMO: 3.24 to 25.58 nmol/mg
[8]; n=9, p=0.004
  spermidine average percent decrease from baseline: 73.6% and 74%
  spermine average decrease from baseline: 50.8% and 51%
[8]; n=9, pre-DFMO average 29.14
  average level of spermine after DFMO: 14.33 nmol/mg
[8]; n=9, pre-DFMO median 28.85
  median level of spermine after DFMO: 17.40 nmol/mg
[8]; n=9, pretreatment average 1.21
  average level of spermidine after therapy: 0.32 nmol/mg
[8]; n=9, pretreatment median 0.81
  median level of spermidine after therapy: 0.21 nmol/mg
[8]; prostate core biopsy, all nine men, detection limit 0.01 nmol/mg
  putrescine level after DFMO: undetectable
[8]; six men with pre-DFMO putrescine ≧0.01, p=0.031
  putrescine average decrease from baseline: 97.6% and 98%
ODC
  inhibition of ODC activity: inhibitory
[9]
  interleukin-1β (IL-1β)-induced matrilysin expression: suppresses

## NCCC[C@](N)(C(=O)O)C(F)F [L-DFMO]
ODC
  inhibition of ODC activity: inhibitory

## NCCC[C@@](N)(C(=O)O)C(F)F [D-DFMO]
ODC
  inhibition of ODC activity: inhibitory
